This assay relates to bone marrow cells and hematopoietic stem/progenitor cells. Kind of assay: Bone marrow hematopoietic stem cell reduction by flow cytometry, 3×ACP animal model. In kind it is in vivo, C57BL/6 mice. The settings on record: 2 days after ACP. The procedure: In this invention, 11 weeks old C57BL/6 mice were used. All the mice used in the experiments of the invention were raised in an aseptic animal room at the temperature of 22˜26 L with the humidity of 55˜60%. The mice were allowed to take general solid feed (SAMTACO Co., Ltd., Korea) and water freely. The mice were adapted for 1 week before the experiment. All the experiments were performed after obtaining approval from the clinical trial management committee in accordance with the laboratory animal care and ethics regulations of Wonkwang University. The mouse animal model of the present invention was treated with different anticancer drugs. Particularly, one kind of anticancer drug was administered intraperitoneally one time or more, or several kinds of anticancer drugs were administered once or more times or at different concentrations, leading to the establishment of the animal model of the invention. In the adriamycin-induced animal model, the mice were divided into 6 groups as follows: the control group administered with PBS (Control, 5 mice), the group administered intraperitoneally with adriamycin (4 mg/kg/day) 3 times (ADR, 5 mice), the group administered orally with dunnione or β-lapachone from 3 days before the adriamycin treatment daily (20 mg/kg, 5 mice), and the group administered with dunnione or β-lapachone (20 mg/kg, 5 mice). 4 days after the final adriamycin treatment, analysis of the mice was performed.
In the 3×ACP induced animal model for the analysis of bone marrow hematopoietic stem cell protective effect, the mice were divided into 4 groups as follows: the control group administered with PBS (Control, 4 mice), the group administered intraperitoneally with 3×ACP once (3×ACP, 4 mice), the group administered orally with dunnione from 3 days before the 3×ACP treatment daily (20 mg/kg, 4 mice), and the group administered with dunnione (20 mg/kg, 4 mice). 2 days after the ACP treatment, analysis of the mice was performed. […]
As a result, as shown in FIG. 9 presenting the results of flow cytometry for the quantitative analysis of bone marrow hematopoietic cells, the region where lineage negative cells were distributed was gated. […] Next, hematopoietic stem cells and multipotent progenitor cells were separated and analyzed, leading to the analysis of multipotent progenitor cell-4 (MPP4) and hematopoietic stem cell/progenitor cell (HSPC). With the hematopoietic stem cell/progenitor cell group, long-term hematopoietic stem cells (HSC^LT), short-term hematopoietic stem cells (HSC^ST), and multipotent progenitor cell-2 and -3 (MPP2 and MPP3) were analyzed. In FIG. 9, the results of flow cytometry analyzed for each group are presented. […]
(In flow cytometry, cells or beads pass a laser one at a time.)

Each structure is given as a SMILES string.

In the case of `CC1OC2=C(C(=O)C(=O)c3ccccc32)C1(C)C` (stereo not shown) [dunnione, 2,3-dihydro-2,3,3-trimethyl naphtho [1,2-b]furan-4,5-dione], the “total bone marrow cell number, increase relative to the group treated with the anticancer drugs” value (3×ACP + dunnione 20 mg/kg oral daily from 3 days before) is on record as “at least three times”. In addition, for the setting “3×ACP + dunnione 20 mg/kg oral”, the “number of hematopoietic stem cell/progenitor cell, increase by dunnione” value is listed as “as much as three times”; the “number of long-term hematopoietic stem cells (HSC^LT), increase relative to the group treated with the anticancer drugs” value is “at least 2 times”; the “number of short-term hematopoietic stem cells (HSC^ST), increase relative to the group treated with the anticancer drugs” value is given as not below 8 times.

For the origin of these results see patent US12370170B2, “Composition comprising naphthoquinone-based compound as active ingredient, for preventing or ameliorating fatigue, cachexia, pain, cognitive decline and hematopoietic stem cell reduction which are side effects related to anticancer drug treatment” (NADIANBIO LTD., priority 2016, dated 2025).
